According to patent US20110237566A1, “Therapeutic Macrolide Compounds and Their Use” (MERLION PHARMACEUTICALS PTE LTD, priority 2008, published 2011):

How the values were obtained:
[1] = Microsomal stability assay; format: in vitro ADME; settings: human, human liver microsomes, pH 7.4, human liver microsomes, 37° C.; for half-life at 50 μM: read-out: T1/2, 50 μm microsomal stability assay
Experimental: 50 μL test sample (50 mM), 25 μL human liver microsomes (20 mg/ml, BD Gentest, catalog no. 452161), 281 μL potassium phosphate buffer (100 mM, pH 7.4), 5 μL NaDPH regenerating system, solution B (BD Biosciences, catalog no. 451200), and 114 μL of water were pre-incubated for 5 min at 37° C. The reaction was initiated by the addition of 25 μL NaDPH regenerating system, solution A (BD Biosciences, catalog no. 451220). After an incubation period of 0, 15, 30, and 60 min at 37° C., 100 μL of the reaction mixture was transferred to an eppendorf tube, followed by addition of 100 μL chilled acetonitrile to quench the reaction. The sample was then centrifuged at 14,000 rpm for 5 min. The supernatant was submitted for LCMS analysis.

[2] = tested on: A549 human alveolar epithelial cell; test: Growth inhibition (cytotoxicity), A549 assay, Cell Titer Glo; format: cell-based; settings: A549, 72 h, A549 cells, 72 hour incubation
Experimental: (§1) The cytotoxicity of each of the MC compounds as described herein was evaluated in the following cell types: A549 human alveolar epithelial cell, PC3 human prostate carcinoma cell, COLO205 human colon adenocarcinoma cell, HEPG2 human hepatoma, OVCAR3 human ovary adenocarcinoma cell, and HL60 human acute myelocytic leukemia (AML) cell.
(§2) A549, PC3, COLO205 and HEPG2 cells were cultured in DMEM (Invitrogen Corporation) with 10% fetal bovine serum, whereas OVCAR3 and HL60 were cultured in the same medium but with 20% fetal bovine serum. For cytotoxocoty measurements the cells were seeded in 96 or 384 well tissue culture treated microtitre plates overnight. Compounds were diluted in appropriate buffers and added to the cells the next day. Following a further 72 hour incubation, cell viability was determined using Cell Titer Glo (Promega Corporation) according to the manufacturers' instructions, and the luminescence measured in Luminoskan Ascent (Thermo Fisher Scientific Inc.).

[3] = tested on: OVCAR3 human ovary adenocarcinoma cell; test: Growth inhibition (cytotoxicity), OVCAR3 assay, Cell Titer Glo; format: cell-based; settings: Homo sapiens, OVCAR-3, 72 h, OVCAR3 cells, 72 hour incubation
Experimental: as §1, §2

[4] = tested on: PC3 human prostate carcinoma cell; test: Growth inhibition (cytotoxicity), PC3A assay, Cell Titer Glo; format: cell-based; settings: PC-3, 72 h, PC3 cells, 72 hour incubation
Experimental: as §1, §2

[5] = Stability determination at PBS pH7.2; format: physicochemical; settings: PBS pH 7.2, pH 7.2, PBS pH7.2, 37° C.; read-out: T1/2, PBS buffer stability assay
Experimental: Around 0.1 mg of the dried sample was placed in a 2-mL vial, added with 1 mL of PBS pH7.2 and then mixed using a Vortex mixer. The mixture was filtered through a 4 mm Nylon filter with 0.2 μm pore size and the filtrate collected in an hplc vial. The vial was placed in an hplc autosampler maintained at 37° C. just before injection (time=0 h). The stability of the sample was calculated by determining the amount left in solution at specific time intervals. This study was carried out in three trials with the buffer solution as a blank.

Structure (SMILES) | half-life at 50 μM [1] [min] | IC50 [2] [nM] | further results
CC[C@H](OC)[C@@H](C)[C@H]1O[C@@H]1C(NCCCN1CCOCC1)C(C)(O)/C=C/C=C(\C)C1OC(=O)C[C@H](O)CC[C@@](C)(O)[C@@H](OC(C)=O)/C=C/[C@@H]1C.O=CO (single isomer, unassigned) [MC-009b] | > 30 |  | 
CC[C@H](OC)[C@@H](C)[C@H]1O[C@@H]1C1C(Cc2ccccc2)C(=O)OC1(C)/C=C/C=C(\C)C1OC(=O)C[C@H](O)CC[C@@](C)(O)[C@@H](OC(C)=O)/C=C/[C@@H]1C (single isomer, unassigned) [MC-012a] |  | ≤ 1000 | 
CC[C@H](OC)[C@@H](C)[C@H]1O[C@@H]1C(NCc1ccc(Br)cc1)C(C)(O)/C=C/C=C(\C)C1OC(=O)C[C@H](O)CC[C@@](C)(O)[C@@H](OC(C)=O)/C=C/[C@@H]1C.O=CO (single isomer, unassigned) [MC-014b] | > 30 |  | 
CC[C@H](OC)[C@@H](C)[C@H]1O[C@@H]1C(NCCc1ccc(Cl)cc1Cl)C(C)(O)/C=C/C=C(\C)C1OC(=O)C[C@H](O)CC[C@@](C)(O)[C@@H](OC(C)=O)/C=C/[C@@H]1C (single isomer, unassigned) [MC-017b] |  | ≤ 1000 | 
CC[C@H](OC)[C@@H](C)[C@H]1O[C@@H]1C(NCc1c(Cl)cccc1Cl)C(C)(O)/C=C/C=C(\C)C1OC(=O)C[C@H](O)CC[C@@](C)(O)[C@@H](OC(C)=O)/C=C/[C@@H]1C (single isomer, unassigned) [MC-018a] |  | ≤ 1000 | 
CC[C@H](OC)[C@@H](C)[C@H]1O[C@@H]1C(NCc1cccc(Cl)c1)C(C)(O)/C=C/C=C(\C)C1OC(=O)C[C@H](O)CC[C@@](C)(O)[C@@H](OC(C)=O)/C=C/[C@@H]1C (single isomer, unassigned) [MC-027a] |  | ≤ 1000 | 
CC[C@H](OC)[C@@H](C)[C@H]1O[C@@H]1C(NCc1ccc2c(c1)OCO2)C(C)(O)/C=C/C=C(\C)C1OC(=O)C[C@H](O)CC[C@@](C)(O)[C@@H](OC(C)=O)/C=C/[C@@H]1C.O=CO (single isomer, unassigned) [MC-030a] | > 30 |  | IC50 [3]: ≤ 100 nM; IC50 [4]: ≤ 100 nM
CC[C@H](OC)[C@@H](C)[C@H]1O[C@@H]1C(NCc1ccc(N2CCCNCC2)cc1)C(C)(O)/C=C/C=C(\C)C1OC(=O)C[C@H](O)CC[C@@](C)(O)[C@@H](OC(C)=O)/C=C/[C@@H]1C (single isomer, unassigned) [MC-041a] |  | ≤ 1000 | 
CC[C@H](OC)[C@@H](C)[C@H]1O[C@@H]1C(NCc1ccc2[nH]ccc2c1)C(C)(O)/C=C/C=C(\C)C1OC(=O)C[C@H](O)CC[C@@](C)(O)[C@@H](OC(C)=O)/C=C/[C@@H]1C.O=CO (single isomer, unassigned) [MC-043a] | > 30 |  | 
CC[C@H](OC)[C@@H](C)[C@H]1O[C@@H]1C(NCc1ccc(NC2CC2)cc1)C(C)(O)/C=C/C=C(\C)C1OC(=O)C[C@H](O)CC[C@@](C)(O)[C@@H](OC(C)=O)/C=C/[C@@H]1C (single isomer, unassigned) [MC-044a] |  | ≤ 1000 | 
CC[C@H](OC)[C@@H](C)[C@H]1O[C@@H]1C(NCc1ccc(Cl)nc1)C(C)(O)/C=C/C=C(\C)C1OC(=O)C[C@H](O)CC[C@@](C)(O)[C@@H](OC(C)=O)/C=C/[C@@H]1C.O=CO (single isomer, unassigned) [MC-046a] | > 30 |  | 
CC[C@H](OC)[C@@H](C)[C@H]1O[C@@H]1C(NCc1ccc(C)c(F)c1)C(C)(O)/C=C/C=C(\C)[C@H]1OC(=O)C[C@H](O)CC[C@@](C)(O)[C@@H](OC(C)=O)/C=C/[C@@H]1C.O=CO (stereo in doubt) [MC-031] | > 30 |  | IC50 [3]: ≤ 100 nM; IC50 [4]: ≤ 100 nM; half-life at 0.1 mg/mL [5]: > 30 min
CC[C@H](OC)[C@@H](C)C1O[C@@H]1C(NCc1ccc(Cl)nc1)C(C)(O)/C=C/C=C(\C)[C@H]1OC(=O)C[C@H](O)CC[C@@](C)(O)[C@@H](OC(C)=O)/C=C/[C@@H]1C (stereo in doubt) [MC-046] |  |  | half-life at 0.1 mg/mL [5]: > 30 min
CC[C@H](OC)[C@@H](C)C1O[C@@H]1C(N(C)Cc1ccc(Cl)cc1)C(C)(O)/C=C/C=C(\C)[C@H]1OC(=O)C[C@H](O)CC[C@@](C)(O)[C@@H](OC(C)=O)/C=C/[C@@H]1C (stereo in doubt) [MC-047] |  |  | half-life at 0.1 mg/mL [5]: > 30 min
CC[C@H](OC)[C@@H](C)[C@H]1O[C@@H]1C(N(CCO)Cc1ccc2ccccc2c1)C(C)(O)/C=C/C=C(\C)[C@H]1OC(=O)C[C@H](O)CCC(C)(O)[C@@H](OC(C)=O)/C=C/[C@@H]1C (stereo in doubt) [MC-051] |  | ≤ 1000 | 
CC[C@H](OC)[C@@H](C)[C@H]1O[C@@H]1C(N(CCO)Cc1ccc(C(F)(F)F)cc1)C(C)(O)/C=C/C=C(\C)[C@H]1OC(=O)C[C@H](O)CCC(C)(O)[C@@H](OC(C)=O)/C=C/[C@@H]1C (stereo in doubt) [MC-053] |  | ≤ 1000 | 
CC[C@H](OC)[C@@H](C)[C@H]1O[C@@H]1C(NCc1ccccc1)C(C)(/C=C/C=C(\C)[C@H]1OC(=O)C[C@H](O)CCC(C)(O)[C@@H](OC(C)=O)/C=C/[C@@H]1C)NCc1ccccc1 (some centres unmarked) [MC-001] |  | ≤ 1000 | 
CC[C@H](OC)[C@@H](C)[C@H]1O[C@@H]1C(NCc1ccc(F)c(F)c1)C(C)(O)/C=C/C=C(\C)[C@H]1OC(=O)C[C@H](O)CC[C@@](C)(O)[C@@H](OC(C)=O)/C=C/[C@@H]1C.O=CO (some centres unmarked) [MC-029] | > 30 |  | IC50 [3]: ≤ 100 nM; IC50 [4]: ≤ 100 nM
CC[C@H](OC)[C@@H](C)[C@H]1O[C@@H]1C(NCc1ccc2c(c1)OCO2)C(C)(O)/C=C/C=C(\C)C1OC(=O)C[C@H](O)CC[C@@](C)(O)[C@@H](OC(C)=O)/C=C/[C@@H]1C (some centres unmarked) [MC-030] |  |  | half-life at 0.1 mg/mL [5]: > 30 min
CC[C@H](OC)[C@@H](C)[C@H]1O[C@@H]1C(NCc1ccc(Cl)cc1F)C(C)(O)/C=C/C=C(\C)[C@H]1OC(=O)C[C@H](O)CC[C@@](C)(O)[C@@H](OC(C)=O)/C=C/[C@@H]1C.O=CO (some centres unmarked) [MC-032] | > 30 |  | IC50 [3]: ≤ 100 nM; IC50 [4]: ≤ 100 nM
CC[C@H](OC)[C@@H](C)[C@H]1O[C@@H]1C(NCC1CCCCCC1)C(C)(O)/C=C/C=C(\C)[C@H]1OC(=O)C[C@H](O)CC[C@@](C)(O)[C@@H](OC(C)=O)/C=C/[C@@H]1C.O=CO (some centres unmarked) [MC-034] |  | ≤ 1000 | half-life at 5 μM ([1]; 5 μm, read-out: T1/2, 5 μm microsomal stability assay): 6.1 min
CC[C@H](OC)[C@@H](C)[C@H]1O[C@@H]1C(NCc1ccc(N2CCOCC2)cc1)C(C)(O)/C=C/C=C(\C)C1OC(=O)C[C@H](O)CC[C@@](C)(O)[C@@H](OC(C)=O)/C=C/[C@@H]1C (some centres unmarked) [MC-037] |  |  | half-life at 0.1 mg/mL [5]: > 30 min
CC[C@H](OC)[C@@H](C)[C@H]1O[C@@H]1C(NCc1ccc(N2CCOCC2)cc1)C(C)(O)/C=C/C=C(\C)C1OC(=O)C[C@H](O)CC[C@@](C)(O)[C@@H](OC(C)=O)/C=C/[C@@H]1C (some centres unmarked) [MC-037d] | > 30 |  | 
CC[C@H](OC)[C@@H](C)[C@H]1O[C@@H]1C(NCc1ccc(N2CC(C)OC(C)C2)cc1)C(C)(O)/C=C/C=C(\C)C1OC(=O)C[C@H](O)CC[C@@](C)(O)[C@@H](OC(C)=O)/C=C/[C@@H]1C (some centres unmarked) [MC-042c] |  | ≤ 1000 | 
CC[C@H](OC)[C@@H](C)[C@H]1O[C@@H]1C(NCc1ccc2[nH]ccc2c1)C(C)(O)/C=C/C=C(\C)C1OC(=O)C[C@H](O)CC[C@@](C)(O)[C@@H](OC(C)=O)/C=C/[C@@H]1C (some centres unmarked) [MC-043] |  |  | half-life at 0.1 mg/mL [5]: > 30 min
CC[C@H](OC)[C@@H](C)[C@H]1O[C@@H]1C(NCc1ccc2[nH]ccc2c1)C(C)(O)/C=C/C=C(\C)C1OC(=O)C[C@H](O)CC[C@@](C)(O)[C@@H](OC(C)=O)/C=C/[C@@H]1C (some centres unmarked) [MC-043c] |  | ≤ 1000 | 
CC[C@H](OC)[C@@H](C)[C@H]1O[C@@H]1C(N(CCCO)Cc1ccc(Cl)cc1)C(C)(O)/C=C/C=C(\C)[C@H]1OC(=O)C[C@H](O)CC[C@@](C)(O)[C@@H](OC(C)=O)/C=C/[C@@H]1C (some centres unmarked) [MC-045] |  | ≤ 1000 | 
CC[C@H](OC)[C@@H](C)[C@H]1O[C@@H]1C(NS(=O)(=O)c1ccc(F)c(F)c1)C(C)(O)/C=C/C=C(\C)C1OC(=O)C[C@H](O)CCC(C)(O)[C@@H](OC(C)=O)/C=C/[C@@H]1C (some centres unmarked) [MC-58b] |  | ≤ 1000 | 
